According to US12077503B2, “Substituted cyclic amides and their use as herbicides” (FMC CORPORATION, priority 2015, dated 2024):
Where two headings read alike, the source gives them in different places.

Columns and labels:
Format in all cases: in vivo
rice (Oryra sativa) = test: Test B flooded paddy test; conditions: Oryza sativa, Flood, 250 g ai/ha; scale of 0 to 100 where 0 is no effect and 100 is complete control; read-out: Rice plant response rating
Procedure, shortened: (§1)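 2-leaf plants; pots flooded 3 cm over soil; cpd added to paddy water; depth held; greenhouse 13–15 d; visual rating vs controls, 0 = no effect, 100 = complete control.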

[1] = system: sedge, umbrella (small-flower umbrella sedge, Cyperus difformis); test: Test B flooded paddy test; conditions: Cyperus difformis, Flood, 250 g ai/ha, read-out: Sedge, Umbrella plant response rating
Procedure, shortened: as §1

[2] = system: ducksalad (Heteranthera limosa); test: Test B flooded paddy test; conditions: Heteranthera limosa, Flood, 250 g ai/ha; scale of 0 to 100 where 0 is no effect and 100 is complete control; read-out: Ducksalad plant response rating
Procedure, shortened: as §1

[3] = system: barnyardgrass (Echinochloa crus-galli); test: Test B flooded paddy test; conditions: Echinochloa crus-galli, Flood, 250 g ai/ha; scale of 0 to 100 where 0 is no effect and 100 is complete control; read-out: Barnyardgrass plant response rating
Procedure, shortened: as §1

[4] = system: pigweed (Amaranthus retroflexus); test: Test A preemergence; conditions: Amaranthus retroflexus, pre-emergence, 240 h; for pest or weed control at 125 g/ha: 125 g ai/ha, Preemergence, visual injury rating after approximately 10 d, read-out: Pigweed plant response rating (0 to 100 scale, 0 is no effect, 100 is complete control); for pest or weed control at 500 g/ha: 500 g ai/ha, preemergence, visual injury rating about 10 d after treatment, 0 to 100 scale (0 no effect, 100 complete control), read-out: Pigweed plant response rating
[5] = system: ryegrass, Italian (Italian ryegrass, Lolium multiflorum); test: Test A preemergence; conditions: Lolium multiflorum, pre-emergence, 240 h; for pest or weed control at 125 g/ha: 125 g ai/ha, Preemergence, visual injury rating after approximately 10 d, read-out: Ryegrass, Italian plant response rating (0 to 100 scale, 0 is no effect, 100 is complete control); for pest or weed control at 500 g/ha: 500 g ai/ha, preemergence, visual injury rating about 10 d after treatment, 0 to 100 scale (0 no effect, 100 complete control), read-out: Ryegrass, Italian plant response rating
Procedure, shortened: (§2)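 Compounds were formulated in a non-phytotoxic solvent mixture with surfactant and applied as a preemergence directed soil spray after seeding, or sprayed postemergence over plants 2 to 10 cm tall at the one- to two-leaf stage. Evaluation after about 10 d compared treated with untreated controls, using a scale from 0 (no effect) to 100 (complete control).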

[6] = system: ragweed (common ragweed, Ambrosia elatior); test: Test A preemergence; conditions: Ambrosia artemisiifolia, pre-emergence, 240 h; for pest or weed control at 125 g/ha: 125 g ai/ha, Preemergence, visual injury rating after approximately 10 d, read-out: Ragweed plant response rating (0 to 100 scale, 0 is no effect, 100 is complete control); for pest or weed control at 500 g/ha: 500 g ai/ha, preemergence, visual injury rating about 10 d after treatment, 0 to 100 scale (0 no effect, 100 complete control), read-out: Ragweed plant response rating
Procedure, shortened: as §2

[7] = system: barnyardgrass (Echinochloa crus-galli); test: Test A preemergence; conditions: Echinochloa crus-galli, pre-emergence, 240 h; for pest or weed control at 125 g/ha: 125 g ai/ha, Preemergence, visual injury rating after approximately 10 d, read-out: Barnyardgrass plant response rating (0 to 100 scale, 0 is no effect, 100 is complete control); for pest or weed control at 500 g/ha: 500 g ai/ha, preemergence, visual injury rating about 10 d after treatment, 0 to 100 scale (0 no effect, 100 complete control), read-out: Barnyardgrass plant response rating
Procedure, shortened: as §2

Kochia (Kochia scoparia) [8] = test: Test A preemergence; conditions: Bassia scoparia, pre-emergence, 240 h; for pest or weed control at 125 g/ha: 125 g ai/ha, Preemergence, visual injury rating after approximately 10 d, read-out: Kochia plant response rating (0 to 100 scale, 0 is no effect, 100 is complete control); for pest or weed control at 500 g/ha: 500 g ai/ha, preemergence, visual injury rating about 10 d after treatment, 0 to 100 scale (0 no effect, 100 complete control), read-out: Kochia plant response rating
Procedure, shortened: as §2

[9] = system: giant foxtail (Setaria faberii); test: Test A preemergence; conditions: Setaria faberi, pre-emergence, 240 h; for pest or weed control at 125 g/ha: 125 g ai/ha, Preemergence, visual injury rating after approximately 10 d, read-out: Foxtail, Giant plant response rating (0 to 100 scale, 0 is no effect, 100 is complete control); for pest or weed control at 500 g/ha: 500 g ai/ha, preemergence, visual injury rating about 10 d after treatment, 0 to 100 scale (0 no effect, 100 complete control), read-out: Foxtail, Giant plant response rating
Procedure, shortened: as §2

[10] = system: pigweed (Amaranthus retroflexus); test: Test A postemergence; conditions: Amaranthus retroflexus, post-emergence, 240 h, 125 g ai/ha, Postemergence; visual injury after approximately 10 d; 0 to 100 scale where 0 is no effect and 100 is complete control; read-out: Plant response rating, Pigweed
Procedure, shortened: as §2

[11] = system: ryegrass, Italian (Italian ryegrass, Lolium multiflorum); test: Test A postemergence; conditions: Lolium multiflorum, post-emergence, 240 h, 125 g ai/ha, Postemergence; visual injury after approximately 10 d; 0 to 100 scale where 0 is no effect and 100 is complete control; read-out: Plant response rating, Ryegrass, Italian
Procedure, shortened: as §2

corn (Zea mays) = test: Test A postemergence; conditions: Zea mays, post-emergence, 240 h, 125 g ai/ha, Postemergence; visual injury after approximately 10 d; 0 to 100 scale where 0 is no effect and 100 is complete control
Procedure, shortened: as §2

[12] = system: ragweed (common ragweed, Ambrosia elatior); test: Test A postemergence; conditions: Ambrosia artemisiifolia, post-emergence, 240 h, 125 g ai/ha, Postemergence; visual injury after approximately 10 d; 0 to 100 scale where 0 is no effect and 100 is complete control; read-out: Plant response rating, Ragweed
Procedure, shortened: as §2

[13] = system: Galium (catchweed bedstraw, Galium aparine); test: Test A postemergence; conditions: Galium, post-emergence, 240 h, 125 g ai/ha, Postemergence; visual injury after approximately 10 d; 0 to 100 scale where 0 is no effect and 100 is complete control; read-out: Plant response rating, Galium
Procedure, shortened: as §2

[14] = system: blackgrass (Alopecurus myosuroides); test: Test A postemergence; conditions: Alopecurus myosuroides, post-emergence, 240 h, 125 g ai/ha, Postemergence; visual injury after approximately 10 d; 0 to 100 scale where 0 is no effect and 100 is complete control; read-out: Plant response rating, Blackgrass
Procedure, shortened: as §2

[15] = system: wheat (Triticum aestivum); test: Test A postemergence; conditions: Triticum aestivum, post-emergence, 240 h, 125 g ai/ha, Postemergence; visual injury after approximately 10 d; 0 to 100 scale where 0 is no effect and 100 is complete control; read-out: Plant response rating, Wheat
Procedure, shortened: as §2

[16] = system: barnyardgrass (Echinochloa crus-galli); test: Test A postemergence; conditions: Echinochloa crus-galli, post-emergence, 240 h, 125 g ai/ha, Postemergence; visual injury after approximately 10 d; 0 to 100 scale where 0 is no effect and 100 is complete control; read-out: Plant response rating, Barnyardgrass
Procedure, shortened: as §2

Kochia (Kochia scoparia) [17] = test: Test A postemergence; conditions: Bassia scoparia, post-emergence, 240 h, 125 g ai/ha, Postemergence; visual injury after approximately 10 d; 0 to 100 scale where 0 is no effect and 100 is complete control; read-out: Plant response rating, Kochia
Procedure, shortened: as §2

[18] = system: giant foxtail (Setaria faberii); test: Test A postemergence; conditions: Setaria faberi, post-emergence, 240 h, 125 g ai/ha, Postemergence; visual injury after approximately 10 d; 0 to 100 scale where 0 is no effect and 100 is complete control; read-out: Plant response rating, Foxtail, Giant
Procedure, shortened: as §2

SMILES	pest or weed control at 250 g/ha (rice (Oryra sativa)) [%]	pest or weed control at 250 g/ha [2] [%]	pest or weed control at 250 g/ha [3] [%]	pest or weed control at 125 g/ha [4] [%]	pest or weed control at 500 g/ha [4] [%]	pest or weed control at 125 g/ha [5] [%]	pest or weed control at 500 g/ha [5] [%]	pest or weed control at 125 g/ha [6] [%]	pest or weed control at 500 g/ha [6] [%]	pest or weed control at 125 g/ha [7] [%]	pest or weed control at 500 g/ha [7] [%]	pest or weed control at 125 g/ha (Kochia (Kochia scoparia) [8]) [%]	pest or weed control at 500 g/ha (Kochia (Kochia scoparia) [8]) [%]	pest or weed control at 125 g/ha [9] [%]	pest or weed control at 500 g/ha [9] [%]	pest or weed control at 125 g/ha [10] [%]	pest or weed control at 125 g/ha [11] [%]	Corn plant response rating (crop injury, 0 = no effect, 100 = complete kill) at 125 g/ha (corn (Zea mays)) [%]	pest or weed control at 125 g/ha [12] [%]	pest or weed control at 125 g/ha [13] [%]	other results
COc1ccc([C@H]2CN(C)C(=O)[C@@H]2C(=O)Nc2ccccc2F)cc1C(F)(F)F [Compound 984]	15	85	55	40	60	70	30	0	30	100	100	90	90	100	100	0	20	80	0	30	pest or weed control at 250 g/ha ([1]; scale of 0 to 100 where 0 is no effect and 100 is complete control): 0%; pest or weed control at 125 g/ha [14]: 30%; plant injury at 125 g/ha [15]: 20%; pest or weed control at 125 g/ha [16]: 100%; pest or weed control at 125 g/ha (Kochia (Kochia scoparia) [17]): 50%; pest or weed control at 125 g/ha [18]: 90%
Cc1c(F)cccc1NC(=O)[C@H]1C(=O)N(C)C[C@@H]1c1cc(F)cc(C(F)(F)F)c1 [Compound 994]	20	100	75	30	70	70	100	0	0	90	100	40	60	100	100	0	70	70	20	50	pest or weed control at 250 g/ha ([1]; 0 to 100 scale where 0 is no effect and 100 is complete control): 0%; pest or weed control at 125 g/ha [14]: 60%; plant injury at 125 g/ha [15]: 70%; pest or weed control at 125 g/ha [16]: 100%; pest or weed control at 125 g/ha (Kochia (Kochia scoparia) [17]): 40%; pest or weed control at 125 g/ha [18]: 90%
